Assay results reported in patent US5098900A, “3(2H)pyridazinone, process for its preparation and anti-allergic agent containing it” (Nissan Chemical Industries Ltd., priority 1984, dated 1992).

Key:
[1] = tested on: LTC4; test: LTC4 antagonism in isolated guinea-pig trachea (LTC4-induced contraction); format: cell-based; details: 5 min, test compound 10^-5 g/ml, LTC4 2×10^-8 g/ml, guinea-pig trachea; for inhibition at 10 µg/mL: Cavia porcellus, read-out: LTC4 antagonism
Procedure: (§1) (ii) LTC4 and LTD4 antagonisms in guinea-pig trachea
(§2) Antagonism for LTC4 and LTD4 were determined in isolated guinea-pig trachea prepared as spiral strip. 10 Tracheal preparations were suspended under 1 g tension in […] and they were incubated for 1 hr prior to use. Contractile responses to LTC4 (2×10^-8 g/ml) and LTD4 (2×10^-8 g/ml) were obtained after the maximal response to histamine (10^-4 M). Test compounds dissolved in 100% dimethyl sulfoxide were added to the organ baths (final concentration of 10^-5 g/ml) 5 min prior to LTC4 and LTD4 addition, and then contractile responses to LTC4 and LTD4 were compared with those of control which was obtained from a paired trachea in the absence of test compounds. LTC4 - and LTD4 -induced contractions were expressed as a percentage of the maximal response to histamine. The antagonism was determined as follows: Antagonism (%)=(1.0-% contraction in test/% contraction in control)×100

[2] = tested on: ddY strain male; test: Acute toxicity test, method-(2), intraperitoneal injection; format: in vivo, ddY strain male (4 weeks old); details: 7 days
Procedure: The lethal ratio was determined in ddY strain male (4 weeks old) at 7 days after the intraperitoneal injection of test compounds.

[3] = tested on: LTD4; test: LTD4 antagonism in isolated guinea-pig trachea (LTD4-induced contraction); format: cell-based; details: Cavia porcellus, 5 min, test compound 10^-5 g/ml, LTD4 2×10^-8 g/ml
Procedure: as §1, §2

SMILES | inhibition at 10 µg/mL [3] [%] | other results
CN(C)Cc1ccc(CNc2cnn(C(C)(C)C)c(=O)c2Cl)cc1 [compound 48] |  | inhibition at 10 µg/mL [1]: 30%
Cc1ccc(CNc2cnn(C(C)C)c(=O)c2Cl)cc1 [compound 77] | 90 | Lethal ratio (Death number/Experimental number) ([2]; 200 mg/kg): 0/2; Lethal ratio (Death number/Experimental number) ([2]; 400 mg/kg): 0/2
CC(C)(C)n1ncc(NCc2ccc(/C=C/C(=O)O)cc2)c(Cl)c1=O [compound 24] |  | inhibition at 10 µg/mL [1]: 7%
Cc1ccccc1CNc1cnn(C(C)C)c(=O)c1Cl [compound 78] | 97 | Lethal ratio (Death number/Experimental number) ([2]; 200 mg/kg): 0/2; Lethal ratio (Death number/Experimental number) ([2]; 400 mg/kg): 0/1
CCCOc1cccc(CNc2cnn(CC)c(=O)c2Cl)c1 [compound 93] | 96 | inhibition at 10 µg/mL [1]: 93%
CCN(CC)c1ccc(CNc2cnn(C(C)(C)C)c(=O)c2Cl)cc1 [compound 29] |  | inhibition at 10 µg/mL [1]: 68%
CCN1CCN(Cc2ccc(CNc3cnn(C(C)(C)C)c(=O)c3Cl)cc2)CC1 [compound 49] |  | LTC4 antagonism [1]: 8%
CCn1ncc(NCc2cccc(OC)c2)c(Cl)c1=O [Compound No. 6] | 62 | inhibition at 10 µg/mL [1]: 33%
COc1ccc(CNc2cnn(C(C)C)c(=O)c2Br)c(OC)c1 [compound 169] | 100 | 
CN(C)CCNC(=O)c1ccc(CNc2cnn(C(C)(C)C)c(=O)c2Cl)cc1 [compound 58] | 23 | 
CC(C)n1ncc(NCc2cccc(OCCCCC(=O)O)c2)c(Cl)c1=O [Compound No. 142, 4-Chloro-5-[3-(4-carboxy)butoxybenzylamino]-2-i-propyl-3(2H)pyridazinone] | 41 | 
COC(=O)CCCCOc1cccc(CNc2cnn(C(C)C)c(=O)c2Cl)c1 [Compound No. 144] | 44 | 
CC(C)(C)n1ncc(NCc2ccc(C(=O)N3CCOCC3)cc2)c(Cl)c1=O [compound 40] |  | inhibition at 10 µg/mL [1]: 17%
CCCOc1cccc(CNc2cnn(CC)c(=O)c2Br)c1 [compound 157] | 88 | 
CCc1ccc(CNc2cnn(CC)c(=O)c2Cl)cc1 [compound 81] | 68 | 
CN(C)CCCNC(=O)c1ccc(CNc2cnn(C(C)(C)C)c(=O)c2Cl)cc1 [compound 59] |  | inhibition at 10 µg/mL [1]: 17%
CCOc1cc(CNc2cnn(CC)c(=O)c2Br)ccc1OC [compound 160] | 98 | 
CCOc1cccc(CNc2cnn(CC)c(=O)c2Cl)c1OCc1ccccc1 [compound 116] | 89 | 
COc1ccc(CNc2cnn(C(C)C)c(=O)c2Br)cc1 [compound 162] | 100 | 
CCOc1cccc(CNc2cnn(C(C)C)c(=O)c2Br)c1 [compound 165] | 71 | 
CCOc1ccc(CNc2cnn(C(C)C)c(=O)c2Br)cc1 [Compound No. 164, 4-Bromo-5-(4-ethoxybenzylamino)-2-i-propyl-3(2H)pyridazinone] | 82 | 
COC(=O)CCCCOc1cc(CNc2cnn(C(C)C)c(=O)c2Cl)ccc1OC [compound 145] | 81 | 
CCOc1cccc(CNc2cnn(C(C)C)c(=O)c2C)c1 [compound 152] | 75 | 
COc1ccc(OC)c(CNc2cnn(C(C)C)c(=O)c2Cl)c1 [compound 104] | 68 | 
CCn1ncc(NCc2ccc(OC)cc2OC)c(Br)c1=O [compound 159] | 98 | 
CCc1cc(CNc2cnn(CC)c(=O)c2Cl)ccc1OCc1ccccc1 [compound 83] | 74 | 
CCn1ncc(NCc2ccc(SC)cc2)c(Cl)c1=O [compound 124] | 71 | 
CC(C)n1ncc(NCc2cccc(OCCCCC(=O)OC(C)(C)C)c2)c(Cl)c1=O [Compound No. 139, 4-Chloro-5-[3-(4-t-butoxycarbonyl)butoxybenzylamino]-2-i-propyl-3(2H)pyridazinone] | 57 | 
CCOC(=O)CCNC(=O)/C=C/c1ccc(CNc2cnn(C(C)(C)C)c(=O)c2Cl)cc1 [Compound No. 60] | 15 | 
